Measurements taken from patent publication US20150044305A1, “[…] NITRIC OXIDE FOR TREATING RESPIRATORY DISEASES” (Advanced Inhalation Therapies (AIT) Ltd., priority 2012, published 2015).
Like-named read-outs stand apart in the source and are kept apart here.

How the values were obtained:
[1] = system: five planktonic species of methicillin resistant S. aureous (MRSA); conditions: exposure to 1,600 ppm hours of gNO; cited from earlier work
MRSA = conditions: 200 ppm gNO, saline suspension; cited from earlier work
E. Coli = conditions: 200 ppm gNO, saline suspension; cited from earlier work
Mycobacterium = conditions: 200 ppm gNO, saline suspension; cited from earlier work
inflammatory cytokines = assay: Phase I safety study: plasma cytokine levels by cytokine bead array; assay type: in vivo, human; conditions: vs baseline
Procedure: (§1) After obtaining informed consent, treatment was initiated within 5 days of enrollment. Subjects were housed in a hospital ward and received 160 ppm gNO for 30 minutes every four hours (Q4 h), five times a day, for five consecutive days by inhalation. Subjects returned for follow-up evaluations 3, 7 and 21 days after the final gNO administration. Subject safety was determined by monitoring vital signs, methemoglobin levels, lung function, blood chemistry, hematology, prothrombin time, inflammatory cytokine/chemokines levels and endothelial activation.
(§2) Hematological assessment included a complete blood count and differentials (hemoglobin, hematocrit, red blood cell count, white blood cell count, white blood cell differential, and platelet count) were obtained in order to monitor blood chemistry, hematology and inflammation measurements. The blood chemistry profile included serum creatinine, and liver function tests such as aspartate aminotransferase (AST) serum glutamic oxaloacetic transaminase (SGOT), alkaline phosphatase, and gamma-glutamyl transferase (GGT). The effect of gNO on coagulation was determined by the prothrombin time (PT) and its derived measures of prothrombin ratio (PR) and international normalized ratio (INR). Heparinized plasma was collected at baseline and on days 1, 2, 4, and 5 of gNO administration, and on follow-up days 3, 7 and 21 and frozen at −80° C. Plasma cytokine levels were assessed using the human inflammation cytokine bead array kit (BD Bioscience, Canada). Plasma levels of angiopoietin Ang-1 and Ang-2 were determined by ELISA (R&D Systems, USA).

Pseudomonas aeruginosa = conditions: inhaled, intermittent 30 minute exposures, 160 ppm gNO; cited from earlier work
[2] = topical 200 ppm gNO, cited from earlier work
P. aeruginosa (ATCC) = conditions: 200 ppm gNO, saline suspension; cited from earlier work
P. aeruginosa = conditions: cited from earlier work
[3] = Phase I safety study: serum nitrite/nitrate by Griess reagent; assay type: in vivo, human; conditions: during the trial, 160 ppm gNO
Procedure: as §1
These parameters were measured continuously during every gNO administration course and for 3.5 hours after the first treatment of the day. Daily serum samples were collected and frozen at −80° C. and the serum […] level was measured using the Griess reagent.

[4] = gNO concentrations below 200 ppm, 6 hours/day for 28 days, rats; cited from earlier work
Klebsiella sp.#1 = conditions: 200 ppm gNO, saline suspension; cited from earlier work
Group B Streptococci = conditions: 200 ppm gNO, saline suspension; cited from earlier work
[5] = intermittent gNO inhalation; cited from earlier work
[6] = cited from earlier work
methemoglobin = conditions: healthy humans, cited from earlier work
Enterobacter sp. = conditions: 200 ppm gNO, saline suspension; cited from earlier work
[7] = system: vascular endothelial activation factors Ang-1 and Ang-2; assay: Phase I safety study: plasma angiopoietin Ang-1 and Ang-2; assay type: in vivo, human; conditions: vs baseline
Procedure: as §1, §2

[8] = Phase I safety study: pulmonary function tests; assay type: in vivo, human
Procedure: as §1
Subjects underwent full pulmonary function tests (PFT), including lung diffusing capacity (DLCO) by a trained technician utilizing a calibrated pulmonary function system (Jaeger MasterScreen, VIASYS Healthcare, USA) on screening and days 2, 8, 12 and 26. Spirometry test (Microloop by Micro Medical, England) was performed on days 1, 3 and 4. Effect of gNO on lung function and DLCO was determined by changes from baseline, treatment days and follow up days.

S. maltophilia = conditions: 200 ppm gNO, saline suspension; cited from earlier work
S. aureus = conditions: cited from earlier work
[9] = levels of gNO greater than 120 ppm
[10] = solid media, increasing gNO concentration up to 160 ppm, vs medical air
[11] = vs baseline during the course of the study

For `[N]=O` [gNO, nitric oxide], the “population of planktonic MRSA strains” value [1] is listed as “A reduction in the population of all five MRSA planktonic strains was observed”, the “LD100” value (MRSA) is listed as 5 h and the “Latent Period” value (MRSA) is listed as 3 h. For the same molecule, the “−2.5 Log10 (hours)” value (MRSA) was 4.2 hours, the “LD100” value (E. Coli) was 5 h and the “Latent Period” value (E. Coli) was 3 h. For the same molecule, the “−2.5 Log10 (hours)” value (E. Coli) was 4.2 hours, the “LD100” value (Mycobacterium) was 10 h and the “Latent Period” value (Mycobacterium) was 7 h. For the same molecule, the “−2.5 Log10 (hours)” value (Mycobacterium) was 9.2 hours, the “cytokine level of IL-1b” value (inflammatory cytokines) was “unaffected” and the “cytokine level of IL-6” value (inflammatory cytokines) was “unaffected”. The “cytokine level of IL-8” value (inflammatory cytokines) was “unaffected”, the “cytokine level of IL-10” value (inflammatory cytokines) was “unaffected” and the “cytokine level of IL-12p70” value (inflammatory cytokines) was “unaffected”. For the same molecule, the “cytokine level of TNF” value (inflammatory cytokines) was “unaffected”, the “pulmonary bioburden and leukocyte infiltration” value (Pseudomonas aeruginosa) was “effective to reduce the pulmonary bioburden and leukocyte infiltration” and the wound size reduction ([2]; at one week) was 42%. The biofilm presence ([2]; within the first three days of treatment) was “no longer visibly present”, the “LD100” value (P. aeruginosa (ATCC)) was 3 h and the “Latent Period” value (P. aeruginosa (ATCC)) was 1 h. The “−2.5 Log10 (hours)” value (P. aeruginosa (ATCC)) was 2.1 hours, the “reduction of colony formation” value (P. aeruginosa; [9]) was “greater than 90%” and the “time required to achieve greater than 90% reduction of colony formation” value (P. aeruginosa; [9]) was 8 to 12 h. For the same molecule, the “survival (downward bactericidal trend)” value (P. aeruginosa; [10]) was 5-10%, the “serum nitrite/nitrate levels vs baseline” value [3] was “no significant differences” and the mortality [4] was “No deaths occurred”. The “LD100” value (Klebsiella sp.#1) was 6 h, the “Latent Period” value (Klebsiella sp.#1) was 3 h and the “−2.5 Log10 (hours)” value (Klebsiella sp.#1) was 3.5 hours. The “LD100” value (Group B Streptococci) was 2 h, the “Latent Period” value (Group B Streptococci) was 1 h and the “−2.5 Log10 (hours)” value (Group B Streptococci) was 1.5 hours. For the same molecule, the “clinical symptoms of bovine respiratory disease” value [5] was “shown to decrease the clinical symptoms”, the mortality ([6]; 300 ppm gNO, groups of 10 rats, first 1-2 days) was “Six of the animals treated with 300 ppm gNO died” and the mortality ([6]; 400 ppm gNO, 6 continuous hours per day, rats) was “all of the animals died on the first day”. The mortality ([6]; 500 ppm gNO, 6 continuous hours per day, rats) was “all of the animals died on the first day”, the MetHb level ([6]; 500 ppm gNO, rats) was 67 percents and the MetHb level (methemoglobin; inhalation of gNO at 128 ppm for 3 hours) was over 5%. For the same molecule, the MetHb level (methemoglobin; inhalation of gNO at 512 ppm for 55 minutes) was over 5%, the “LD100” value (Enterobacter sp.) was 6 h and the “Latent Period” value (Enterobacter sp.) was 4 h. The “−2.5 Log10 (hours)” value (Enterobacter sp.) was 5.3 hours, the Ang-1 plasma level [7] was “unaffected” and the Ang-2/Ang-1 ratio [7] was “not affected”. The Ang-2 plasma level [7] was “not affected”, the pulmonary function tests ([8]; during and after gNO administration) was “did not reveal any abnormalities” and the DLCO ([8]; vs baseline) was “did not change from baseline”. The “forced vital capacity (FVC)” value ([8]; vs baseline) was “did not change from baseline”, the “residual volume (RV)” value ([8]; vs baseline) was “did not change from baseline” and the “total lung capacity (TLC)” value ([8]; vs baseline) was “did not change from baseline”. The FEV1 [8, 11] was “did not differ from baseline”, the “maximum mid-expiratory flow (MMEF)” value [8, 11] was “did not differ from baseline” and the “LD100” value (S. maltophilia) was 4 h. The “Latent Period” value (S. maltophilia) was 2 h, the “−2.5 Log10 (hours)” value (S. maltophilia) was 2.8 hours and the “reduction of colony formation” value (S. aureus; [9]) was “greater than 90%”. The “time required to achieve greater than 90% reduction of colony formation” value (S. aureus; [9]) was 8 to 12 h and the “survival (downward bactericidal trend)” value (S. aureus; [10]) was 5-10%.
